Tests used:
[1] = system: human umbilical vascular endothelial (HUVE) cells; test: HUVE cell migration, transwell migration assay stimulated by VEGF; assay type: cell-based; conditions: for HUVE cell migration: 20 ng/ml VEGF
Protocol: Cell migration is an important aspect of angiogenesis. The effect of the test compounds on HUVE cell motility as stimulated by VEGF was examined using a transwell migration assay. This assay was performed by a similar procedure described in Shimizu A, Mammoto A, Italiano J E Jr, Pravda E, Dudley A C, Ingber D E, Klagsbrun M. “ABL2/ARG tyrosine kinase mediates SEMA3F-induced RhoA inactivation and cytoskeleton collapse in human glioma cells.” J. Biol. Chem. 2008, 283:27230-8, the teaching of which are incorporated by reference.
Briefly, transwell membranes (Coster, N.Y.) were coated with 0.5% gelatin, and cells were seeded (10^5 cells/100 μl) with 0.3% FBS/EBM2. The test compound was added to the both sides of the chamber. Cells were stained with Giemsa solution 16 hours later, and counted in 10 random fields (×400).

[2] = system: human umbilical vascular endothelial (HUVE) cells; test: HUVE cell growth (BrdU incorporation); assay type: cell-based; conditions: for HUVE cell growth induced by PDGF / HUVE cell growth induced by VEGF / HUVE cell growth induced by bFGF: concentration not given; for growth of HUVE cells (BrdU incorporation): 0, 200, 1000 and 2000 nM (FIG. 3B); for BrdU incorporation: 1 μM (FIG. 3A); for doses that inhibited BrdU incorporation: FIGS. 3A & 3B
Protocol: Incorporation of 5-bromo-2′-deoxyuridibe (BrdU) is a common method used to detect the DNA replication in actively proliferating cells. Inhibition of cell growth is inferred by the decrease of BrdU incorporation into the cells. […] The assay can be preformed in the presence or absence of growth factors such as VEGF, bFGF and PDGF. This assay was performed by a procedure described in Huang S, Chen C S, Ingber D E. “Control of cyclin D1, p 27(Kip1), and cell cycle progression in human capillary endothelial cells by cell shape and cytoskeletal tension.” Mol Biol Cell. 1998, 9:3179-93, the teachings of which are incorporated herein by reference.

[3] = system: human umbilical vascular endothelial (HUVE) cells; test: Tube formation of HUVE cells on Matrigel; assay type: cell-based; conditions: for tube formation, quantitative analysis of mean tube length: cultured with VEGF in the basal EBM2 medium (FIG. 12)
Protocol: The effect of an agent on tube formation of HUVE cells was determined by a procedure described in Grant D S, Kinsella J L, Kibbey M C, LaFlamme S, Burbelo P D, Goldstein A L, Kleinman H K “Matrigel induces thymosin beta 4 gene in differentiating endothelial cells.” J Cell Sci. 1995, 108:3685-94, the teachings of which are incorporated by reference.
Briefly, HUVE cells (10^4 cells/150 μl of EBM-2) were plated on Matrigel™ (BD biosciences) and incubated for 12-16 hrs in the presence of VEGF (20 ng/ml) and the test compound. Tube formation was assessed in 10 random fields (4×).

[4] = system: developing vasculature of the newborn mouse retina; test: In vivo screening assay for inhibitors of retinal angiogenesis (intravitreous injection, newborn mice); conditions: for retinal vessel formation: 5 nmol single injection
Description: Blood vessel formation is critical for organ formation in the body. Compounds that inhibit angiogenesis within specific tissue types have therapeutic potential. For example, compounds that are effective in the retina may be used for the treatment of many types of blindness and other opthalmological diseases. Therefore, an in vivo method to screen for compounds that inhibit the growing vascular networks within the developing whole retina in eyes of living newborn mice was developed.
To screen in vivo in the eye for inhibitors of retinal angiogenesis, we adapted and modified the system described in Mammoto, A., Connor, K. M., Mammoto, T., Yung, C. W., Huh, D., Aderman, C. M., Mostoslaysky, G., Smith, L. E. H., & Ingber, D. E. A mechanosensitive transcriptional mechanism that controls angiogenesis. Nature 457, 1103-1108 (2009); and Shih, S. C., Ju, M., Liu, N. & Smith, L. E. Selective stimulation of VEGFR-1 prevents oxygen-induced retinal vascular degeneration in retinopathy of prematurity. J. Clin. Invest. 112, 50-7 (2003), the teachings of both are incorporated herein by reference. This assay was performed by a procedure described in Chen J, Connor K M, Aderman C M, Smith L E. “Erythropoietin deficiency decreases vascular stability in mice.” J. Clin. Invest. 2008, 118:526-33, the teachings of which are incorporated herein by reference.
After intraperitoneal injection of Avertin (125-240 mg/kg), the eyelid of mice was opened in a gentle manner by using tiny sterile blunt forceps. Test compound was injected into the vitreous of one eye of the mouse and a vehicle was injected into the other eye of the same mouse at either P6 or P14. Injections were performed by inserting an Exmire microsyringe (MS-NE05, ITO Corp. Fuji, Japan) into the vitreous 1 mm posterior to the corneal limbus. Pupils were dilated with 1% tropicamide. Insertion and the injection (0.3-0.5 μL solution) were directly viewed through an operating microscope, taking care not to injure the lens or the retina. The time points for intravitreous injection were set at P6 and P14 because these stages represent distinct developmental stages during vascular network formation. Blood vessels start spreading over the surface of retinal tissue at early times (P4-P6), then these distributed blood vessels start migrating into the deeper layer of the retina to make a three-dimensional vascular network at later times (P6-P14). Thus, using this approach, screening for inhibitors of initiation of angiogenesis at early times, and agents that induce regression of preexisting capillary vessels at the later time point can be identified.
After injection, the eyelid was treated with bacitracin eye antibiotic ointment, and eyelids naturally reformed after the procedure. Vascular network formation in the retina was assessed two days after injection using flat-mounted, fluorescein-conjugated isolectin-staining and immunohistochemical analysis. Quantification of vessel density was performed with Adobe photoshop.

[5] = system: human umbilical vascular endothelial (HUVE) cells; test: Compound toxicity in HUVE cells (morphology after 24 h culture); assay type: cell-based; conditions: 50-2000 nM, 5% FBS/EGM2 media
Protocol: HUVE cells were cultured for 24 hours on standard tissue culture dishes in the presence of EJC 1-6 over a range of concentration (50-2000 nM). […] (FIGS. 1 and 2).

[6] = 50 nM, cultured with VEGF in the basal EBM2 medium

Q: Which HUVE cell migration ([1]; 50 nM test compound) does the source give for `CN1CCc2ccc([C@H]3CC[C@H]4[C@@H]5CC[C@H]6C[C@@H](N(C)C)CC[C@@H]6[C@H]5CC[C@]34C)cc2C1` [EJC-8] here?
A: inhibit

Q: `CN(C)[C@H]1CC[C@H]2[C@@H](CC[C@@H]3[C@@H]2CC[C@]2(C)C(c4cccc5cnccc45)=CC[C@@H]32)C1` [EJC-12] was tested. Which HUVE cell migration ([1]; 50 nM test compound) did it give?
A: inhibit

Q: With `CN(C)[C@H]1CC[C@H]2[C@@H](CC[C@@H]3[C@@H]2CC[C@]2(C)C(c4ccc5ncccc5c4)=CC[C@@H]32)C1` [EJC-11] as the compound, how does the HUVE cell migration ([1]; 50 nM test compound) read?
A: moderately active

Q: How did the HUVE cell migration ([1]; 50 nM test compound) turn out when `CN(C)[C@H]1CC[C@H]2[C@@H](CC[C@@H]3[C@@H]2CC[C@]2(C)C(c4ccncc4)=CC[C@@H]32)C1` [EJC-15] was run?
A: inactive

Q: `C[C@]12CC[C@H]3[C@@H](CC[C@H]4C[C@@H](N5CCOCC5)CC[C@@H]43)[C@@H]1CC=C2c1ccc2cnccc2c1` [EJC-24] was tested. Which HUVE cell migration ([1]; 50 nM test compound) did it give?
A: did not inhibit

Q: What does the source list for `CN(C)[C@H]1CC[C@H]2[C@@H](CC[C@@H]3[C@@H]2CC[C@]2(C)C(c4ccc5cnccc5c4)=CC[C@@H]32)C1` [EJC-10]?
A: IC50 ([2]; Homo sapiens, in the presence of PDGF, read-out: IC50, cell growth induced by PDGF): 0.0795 µM; IC50 ([2]; Homo sapiens, in the presence of VEGF, read-out: IC50, cell growth induced by VEGF): 0.0167 µM; IC50 ([2]; Homo sapiens, in the presence of bFGF, read-out: IC50, cell growth induced by bFGF): 0.0641 µM; IC50 ([2]; Homo sapiens, media absent an exogenous growth factor, read-out: IC50, growth of HUVE cells): 0.0576 µM; HUVE cell growth induced by PDGF [2]: inhibited; HUVE cell growth induced by VEGF [2]: inhibited; HUVE cell growth induced by bFGF [2]: inhibited; IC50 ([2]; in the presence of PDGF, read-out: IC50, cell growth induced by PDGF): 0.0795 µM; IC50 ([2]; in the presence of bFGF, read-out: IC50, cell growth induced by bFGF): 0.0641 µM; HUVE cell migration ([1]; 50 nM test compound): inhibit; IC50 ([1]; Homo sapiens, VEGF-stimulated, transwell, read-out: cell migration inhibition IC50): 0.0707 µM; tube formation [3, 6]: significant inhibition; tube formation, quantitative analysis of mean tube length ([3]; 50 nM): inhibit; retinal vessel formation ([4]; p6 mice): did not inhibit retinal vessel formation completely; retinal vessel formation ([4]; p14 mice): did not inhibit retinal vessel formation completely; vessel density in the retina compared to control ([4]; single dose of 500 pmol, p6 mice (FIG. 13)): decreases; retinal angiogenesis ([4]; single injection of 500 pmol, p6 mice): inhibited

Q: For `C[C@]12CC[C@H]3[C@@H](CC[C@H]4C[C@@H](N5CCOCC5)CC[C@@H]43)[C@@H]1CC=C2c1ccc2ccncc2c1` [EJC-23], which HUVE cell migration ([1]; 50 nM test compound) is on record?
A: did not inhibit

Q: For `CN(C)[C@H]1CC[C@H]2[C@@H](CC[C@@H]3[C@@H]2CC[C@]2(C)[C@@H](c4ccc5ccncc5c4)CC[C@@H]32)C1` [EJC-07], which HUVE cell migration ([1]; 200 nM test compound) is on record?
A: active

Q: `CN(C)[C@H]1CC[C@H]2[C@@H](CC[C@@H]3[C@@H]2CC[C@]2(C)C(c4ccc5ccncc5c4)=CC[C@@H]32)C1` [EJC-2] was tested. Which “morphological change of HUVE cells” value [5] did it give?
A: No morphological change

Q: And the “growth of HUVE cells (BrdU incorporation)” value [2]?
A: inhibit the growth

Q: And the BrdU incorporation [2]?
A: inhibit

Q: And the “doses that inhibited BrdU incorporation” value [2]?
A: > 200 nM

Q: And the HUVE cell migration ([1]; 200 nM test compound)?
A: exhibited inhibitory activity

Q: What about the HUVE cell migration ([1]; 1 μM (1000 nM) test compound) of the same compound?
A: inhibit

Q: What about the tube formation ([3]; 200 nM, cultured with VEGF in the basal EBM2 medium) of the same compound?
A: inhibited

Q: What about the tube formation ([3]; 2 μM) of the same compound?
A: inhibited

Q: And the “retinal angiogenesis, morphological analysis” value ([4]; 5-10 nmol in a single injection)?
A: appeared to inhibit retinal angiogenesis based on morphological analysis, but the sampling numbers were low and significant effects were not observed

Q: How did the “morphological change of HUVE cells” value [5] turn out when `CN(C)[C@@H]1CC[C@H]2[C@@H](CC[C@@H]3[C@@H]2CC[C@]2(C)C(c4ccc5ccncc5c4)=CC[C@@H]32)C1` [EJC-1] was run?
A: No morphological change

Q: And the “growth of HUVE cells (BrdU incorporation)” value [2]?
A: inhibit the growth

Q: What about the BrdU incorporation [2] of the same compound?
A: inhibit

Q: And the “doses that inhibited BrdU incorporation” value [2]?
A: greater than 1 μM

Q: And the HUVE cell migration ([1]; 200 nM test compound)?
A: exhibited inhibitory activity

Q: What about the HUVE cell migration ([1]; 1 μM (1000 nM) test compound) of the same compound?
A: inhibit

Q: What about the HUVE cell migration ([1]; 2000 nM test compound) of the same compound?
A: inhibit

Q: What about the tube formation ([3]; 2 μM) of the same compound?
A: inhibited

Q: `CN1CCc2ccc(C3=CC[C@H]4[C@@H]5CC[C@H]6C[C@@H](N(C)C)CC[C@@H]6[C@H]5CC[C@]34C)cc2C1` [EJC-9] was tested. Which HUVE cell migration ([1]; 50 nM test compound) did it give?
A: not active

Q: And the HUVE cell migration ([1]; 200 nM test compound)?
A: not active

Q: And the tube formation [3, 6]?
A: significant inhibition

Q: What about the “tube formation, quantitative analysis of mean tube length” value ([3]; 50 nM) of the same compound?
A: inhibit

Q: `C[C@]12CC[C@H]3[C@@H](CC[C@H]4C[C@@H](N5CCCC5)CC[C@@H]43)[C@@H]1CC=C2c1ccc2ccncc2c1` [EJC-21] was tested. Which HUVE cell migration ([1]; 50 nM test compound) did it give?
A: did not inhibit

Q: For `C[C@]12CC[C@H]3[C@@H](CC[C@H]4C[C@@H](N5CCCC5)CC[C@@H]43)[C@@H]1CC=C2c1ccc2cnccc2c1` [EJC-22], which HUVE cell migration ([1]; 50 nM test compound) is on record?
A: did not inhibit

Q: With `CN(C)[C@H]1CC[C@H]2[C@@H](CC[C@@H]3[C@@H]2CC[C@]2(C)C(c4cccc5ncccc45)=CC[C@@H]32)C1` [EJC-13] as the compound, how does the HUVE cell migration ([1]; 50 nM test compound) read?
A: moderately active

Q: How did the “cell growth induced by VEGF” value ([2]; 50 nM) turn out when `CN(C)[C@H]1CC[C@H]2[C@@H](CC[C@@H]3[C@@H]2CC[C@]2(C)C(c4cccnc4)=CC[C@@H]32)C1` [EJC-14] was run?
A: inhibited

Q: And the “HUVE cell growth induced by PDGF” value [2]?
A: only at higher concentrations and not

Q: And the “HUVE cell growth induced by VEGF” value [2]?
A: inhibited

Q: What about the “HUVE cell growth induced by bFGF” value [2] of the same compound?
A: only at higher concentrations and not

Q: And the HUVE cell migration ([1]; 50 nM test compound)?
A: inhibit

Q: What about the retinal vessel formation ([4]; p6 mice) of the same compound?
A: did not inhibit

Q: And the retinal vessel formation ([4]; p14 mice)?
A: did not inhibit

— patent US20120190659A1, “ANGIOGENESIS INHIBITORS” (Children's Medical Center Corporation, priority 2009, published 2012)
